Test system: gene expression in D04 melanoma cells
Test: RNA-Seq differential expression analysis (DESeq2)
Type: cell-based, human
Method: Total RNA was isolated using the RNeasy mini Kit (QIAGEN) following the manufacturer's protocol. Quality check for extracted RNA was done using 2100 Bioanalyzer (Agilent Technologies, USA) or Tapestation System (Agilent Technologies, USA). […] For samples used for identification of MAPK-responsive lncRNAs, paired-end, 101-bp sequencing was performed by Centrillion Genomic Services (Centrillion Biosciences, USA) on an Illumina HiSeq 2000. For DE gene analysis of ASO-transfected D04 samples, paired-end, 2×150-bp sequencing was performed by Genewiz (USA) on a Illumina HiSeq.
Sequence reads were aligned to the human genome (hg19) using TopHat (Version 2.0.11).
Differential expression (DE) analysis was done using DESeq2. Differentially expressed genes were defined by more than 1.5-fold changes (log 2 >0.58 or <−0.58) in expression with FDR<0.05. GO term analysis was done using DAVID Functional Annotation Clustering analysis.
To examine the biomolecular changes upon TRASH-inhibition in melanoma, D04 cells were treated with TRASH-ASOs (SEQ ID NO:15) and Control-ASOs and RNA was extracted and used for RNA-Seq. […] These GO terms consisted of genes encoding growth factors, tyrosine kinases, G protein coupled receptor subunits, and collagen subunits. Scatter plot diagram showing differential gene expression after TRASH-ASO treatment compared to Control-ASO treatment. (cut-off for significance was adjusted p-value <0.05). Data was obtained from RNA-Seq of D04 melanoma cells, treatment period was three days. (FIG. 5c)

“GACTGGAGATAATTAA (gapmer, pattern not given here) [SEQ ID NO: 15, GapmeR ASO targeting AC004540.4 (TRASH), exon region of both isoforms; used for in vitro experiments]” showed a log2FoldChange (LINC00689 (ENSG00000231419)) of 1.29, a log2FoldChange (LINC00707 (ENSG00000238266)) of 1.936 and a log2FoldChange (LINC00879 (ENSG00000239589)) of −0.6051. For the same sequence, the log2FoldChange (LINC00957 (ENSG00000235314)) was 1.503, the log2FoldChange (LINC00973 (ENSG00000240476)) was 1.339 and the log2FoldChange (LINC01204 (ENSG00000229563)) was 1.543. The log2FoldChange (LINC01444 (ENSG00000264301)) was 1.479, the log2FoldChange (LINC01468 (ENSG00000231131)) was 1.433 and the log2FoldChange (LINC01505 (ENSG00000234323)) was −0.6329. The log2FoldChange (LINC01583 (ENSG00000259518)) was 1.348, the log2FoldChange (LINC01638 (ENSG00000233521)) was 1.544 and the log2FoldChange (LINC01770 (ENSG00000225285)) was −0.5999. For the same sequence, the log2FoldChange (LINC02009 (ENSG00000283646)) was 2.6101, the log2FoldChange (LINC02109 (ENSG00000259786)) was −0.684 and the log2FoldChange (LINC02302 (ENSG00000258998)) was 1.424. It also gave a log2FoldChange (LINC02506 (ENSG00000251129)) of −0.687, a log2FoldChange (LINC02551 (ENSG00000254842)) of 1.274 and a log2FoldChange (LOXL2 (ENSG00000134013)) of −0.5824. The log2FoldChange (LOXL3 (ENSG00000115318)) was −0.6239, the log2FoldChange (LPAR1 (ENSG00000198121)) was −0.683 and the log2FoldChange (LRRC2 (ENSG00000163827)) was 1.394. It also gave a log2FoldChange (LRRC17 (ENSG00000128606)) of −0.6716, a log2FoldChange (LRRK1 (ENSG00000154237)) of −0.6611 and a log2FoldChange (MACROD2 (ENSG00000172264)) of −0.705. For the same sequence, the log2FoldChange (MAML2 (ENSG00000184384)) was −0.6085, the log2FoldChange (MAP3K3 (ENSG00000198909)) was −0.63 and the log2FoldChange (MAP3K7CL (ENSG00000156265)) was 1.53. For the same sequence, the log2FoldChange (MAP7D2 (ENSG00000184368)) was 1.513, the log2FoldChange (MATN1 (ENSG00000162510)) was 1.294 and the log2FoldChange (MCF2L (ENSG00000126217)) was 3.367. The log2FoldChange (MECR (ENSG00000116353)) was −0.6676, the log2FoldChange (MEGF9 (ENSG00000106780)) was −0.634 and the log2FoldChange (MEIS1 (ENSG00000143995)) was −0.6955. It also gave a log2FoldChange (MLLT1 (ENSG00000130382)) of −0.682, a log2FoldChange (MMP3 (ENSG00000149968)) of 1.815 and a log2FoldChange (MPP4 (ENSG00000082126)) of 1.479. The log2FoldChange (MRGPRX4 (ENSG00000179817)) was 1.367, the log2FoldChange (MSANTD2 (ENSG00000120458)) was −0.6954 and the log2FoldChange (MUC4 (ENSG00000145113)) was 2.706. For the same sequence, the log2FoldChange (MVB12B (ENSG00000196814)) was −0.6767, the log2FoldChange (MYBPH (ENSG00000133055)) was −0.6322 and the log2FoldChange (MYCT1 (ENSG00000120279)) was 3.863. For the same sequence, the log2FoldChange (MYH16 (ENSG00000002079)) was 1.514, the log2FoldChange (MYOCD (ENSG00000141052)) was −0.6639 and the log2FoldChange (NA (ENSG00000170647)) was −0.6428. It also gave a log2FoldChange (NAP1L3 (ENSG00000186310)) of 1.339, a log2FoldChange (NBEA (ENSG00000172915)) of −0.6249 and a log2FoldChange (NBEAP1 (ENSG00000258590)) of 1.338. The log2FoldChange (NCALD (ENSG00000104490)) was −0.6411, the log2FoldChange (NCAM1 (ENSG00000149294)) was −0.6126 and the log2FoldChange (NCKAP5L (ENSG00000167566)) was −0.6233. For the same sequence, the log2FoldChange (NES (ENSG00000132688)) was −0.6119, the log2FoldChange (NLRC3 (ENSG00000167984)) was 1.713 and the log2FoldChange (NLRP1 (ENSG00000091592)) was −0.7071. For the same sequence, the log2FoldChange (NLRP3 (ENSG00000162711)) was 2.515, the log2FoldChange (NLRP5 (ENSG00000171487)) was 6.997 and the log2FoldChange (NLRP10 (ENSG00000182261)) was 1.584. For the same sequence, the log2FoldChange (NOSTRIN (ENSG00000163072)) was −0.6677, the log2FoldChange (NR2F1 (ENSG00000175745)) was −0.6433 and the log2FoldChange (NR2F1-AS1 (ENSG00000237187)) was −0.5814. For the same sequence, the log2FoldChange (OLFML2A (ENSG00000185585)) was −0.6037, the log2FoldChange (ONECUT2 (ENSG00000119547)) was 1.306 and the log2FoldChange (OPRK1 (ENSG00000082556)) was 1.22. The log2FoldChange (OVAAL (ENSG00000236719)) was 1.572, the log2FoldChange (P2RX6 (ENSG00000099957)) was −0.6686 and the log2FoldChange (P2RX7 (ENSG00000089041)) was −0.5889. It also gave a log2FoldChange (PADI1 (ENSG00000142623)) of 2.566, a log2FoldChange (PADI3 (ENSG00000142619)) of 1.708 and a log2FoldChange (PAPPA (ENSG00000182752)) of −0.6776. It also gave a log2FoldChange (PCDH12 (ENSG00000113555)) of 1.386, a log2FoldChange (PCDHB15 (ENSG00000113248)) of −0.6069 and a log2FoldChange (PDE2A (ENSG00000186642)) of 1.553. It also gave a log2FoldChange (PDE8A (ENSG00000073417)) of −0.6263, a log2FoldChange (PEAR1 (ENSG00000187800)) of 1.726 and a log2FoldChange (PGM5P2 (ENSG00000277778)) of 1.447. For the same sequence, the log2FoldChange (PIGR (ENSG00000162896)) was 1.274, the log2FoldChange (PIWIL2 (ENSG00000197181)) was 1.787 and the log2FoldChange (PKHD1L1 (ENSG00000205038)) was 1.46. For the same sequence, the log2FoldChange (PKIA (ENSG00000171033)) was −0.6985, the log2FoldChange (PLA2G7 (ENSG00000146070)) was 1.312 and the log2FoldChange (PLAT (ENSG00000104368)) was −0.6194. It also gave a log2FoldChange (PLCD4 (ENSG00000115556)) of −0.6812, a log2FoldChange (PLCL1 (ENSG00000115896)) of −0.6782 and a log2FoldChange (PLCXD2 (ENSG00000240891)) of 1.882. The log2FoldChange (PLEKHA2 (ENSG00000169499)) was −0.6601, the log2FoldChange (PLIN4 (ENSG00000167676)) was −0.6819 and the log2FoldChange (POU2F3 (ENSG00000137709)) was 1.244.

Reference: US20250197864A1, “LNCRNA TRANSCRIPTS IN MELANOMAGENESIS” (The Regents of the University of California, priority 2021, published 2025)
